PMC9305971, “Development of [^18F]AmBF3 Tetrazine for Radiolabeling of Peptides: Preclinical Evaluation and PET Imaging of [^18F]AmBF3-PEG7-Tyr^3-Octreotide in an AR42J Pancreatic Carcinoma Model” (Bioconjugate Chemistry, 2022)

Columns and labels:
[1] = Ex vivo radiometabolite analysis in mouse blood and urine (radio-TLC, radio-HPLC); details: for radiotracer intact in blood and urine: 60 min post injection, ex vivo
Procedure: After tracer injection, CO2 asphyxiation, and cervical dislocation, blood was collected from a cardiac puncture into a tube containing 2 μL of 1% heparin (diluted from 5100 IU/mL) in 0.9% NaCl (aq.). The sample was centrifuged (1000g, 10 min) to separate the plasma from the blood cells. Cold acetonitrile (2 × vol of plasma) was added and centrifuged (10,000g for 5 min) to precipitate the proteins. A sample (100 μL) of the supernatant was injected into HPLC for radio-HPLC analysis. For the tracer [^18F]14, the supernatant was sampled also on TLC for digital autoradiography analysis.
Whole blood from mice were extracted during ex vivo studies, using cardiac puncture. The sample was applied in a microtube containing 1% heparin solution in 0.9% NaCl (aq.) (2 μL); the sample was centrifuged (1000g, 10 min), the total radioactivity in the sample was measured with a γ counter, the supernatant was separated from the pellet (RBC containing fraction), and cold ACN (500 μL) was added. The sample was centrifuged (10,000g, 5 min) to remove the free fraction from the precipitated protein-containing pellet. The pellet (protein-bound fraction) and the supernatant (free fraction) were measured with a γ counter, and a sample (100 μL) was injected into HPLC and spotted (4 μL) on a TLC plate (radio-TLC, TLC silica gel 60 F254, ACN/water 80:20).
Figure S26. Ex vivo stability of [18F]AmBF3-PEG4-TOC ([18F]14) in AR42J tumor bearing mouse blood 5 and 30 minutes post-injection (Radio-TLC). […]
retardation factor (Rf) of Rf = 40 mm. At 30 minutes post-injection the radiometabolite at 40 mm had disappeared and instead a highly polar metabolite (2.8%) at 4.0 mm was visible, and was accompanied by another metabolite (2.0%) eluting in the immediate vicinity of [18F]14 at Rf = 58 mm. At 60 minutes post-injection the tracer accounted for ≥99% of the radioactivity both in blood and urine (ex vivo). […]
(1 picture or pasted object on this page, not shown here)

[2] = tested on: SSTR2-expressing rat pancreatic adenocarcinoma AR42J cells; test: Cell uptake assay; assay type: cell-based; details: 120 min; for cell uptake, baseline: n = 3, % internalized; for cell uptake, blocking: n = 3, coincubation with excess octreotide
Procedure: AR42J cells were grown to >90% confluence. One million cells/well were seeded overnight on 6-well plates. The growth media was removed, and the reaction media (1 mL) containing [^18F]14 (11 kBq, 10 pmol per well) or [^18F]15 (97 kBq, 40 pmol per well) was added. Additionally, cells were coincubated with 2.4 nmol per well of nonmodified octreotide for blocking of radiotracer uptake. Radioactivity in the free, membrane-bound, and internalized fractions was determined at designated time points (15, 30, 60, and 120 min) by treating the cells in a sequence of (1) ice-cold 0.01 M PBS, (2) glycine buffer, and (3) 1 M NaOH, respectively. The fractions were collected and measured with a γ-counter. The detailed protocol is given in the Supporting Information. […]
where Acoct=radioactivity concentration of octanol and AcPBS=radioactivity concentration of PBS. The datapoints were presented as mean ± standard deviation.
AR42J cell-uptake assay and mouse tumor model. Rat pancreatic tumor cell line AR42J that expresses SSTR2, was cultured at 37 °C in 95% relative humidity incubator containing 5% CO2. Cells grown to >90% confluence were used for either in vitro or in vivo experiments.
One million cells/well were seeded overnight on 6-well plates. The growth media was removed and the medium (1 mL/well) containing [18F]14 (11 kBq, 10 pmol per well) or [18F]15 (97 kBq, 40 pmol per well) was added. For studying the specificity of the cell -uptake, a set of cells were co-incubated in the presence of 2.4 nmol per well of non -modified octreotide representative of blocking conditions (total volume ~1 mL). For determining the amount of the radiotracer in the free fraction, at the designated time-points (15, 30, 60 and 120 min) the incubated media were removed, collected to a 5 mL scintillation tube, cells were washed with 1 mL of cold 0.01 M PBS (1×PBS) and again the supernatant collected into the same scintillation tube. Membrane-bound fraction; ice-cold glycine buffer (1 mL) was added on the cells, incubated for 5 minutes on ice, supernatant removed (procedure repeated once more) and the cells washed with ice -cold 1×PBS, and all washing solutions were collected to the same scintillation tube. Internalized fraction; 1 M NaOH (1 mL) was added on the cells and left incubating at an ambient temperature for 10 min. The supernatant was removed, the wells were washed 2 × 1 mL of cold 0.01 M PBS, and the supernatants collected to the same microtube. The collected samples were measured with a gamma counter for measuring the counts per minute (CPM) of each fraction (n = 3). The internalization is presented in percent (%) normalized to the total radioactivity in all three

[3] = 30 minutes post-injection, radio-TLC

Row | Compound | slightly polar metabolite in blood (Rf = 40 mm) ([1]; 5 minutes post-injection, radio-TLC) [%] | another metabolite in blood (Rf = 58 mm) [1, 3] [%] | highly polar metabolite in blood (4.0 mm) [1, 3] [%] | radiotracer intact in blood and urine [1] | radiotracer intact in blood and urine ([1]; listed as [18F]14) [%] | cell uptake, baseline [2] [%] | cell uptake, blocking [2] [%]
1 | C[C@@H](O)[C@@H]1NC(=O)[C@H](CCCCN)NC(=O)[C@@H](Cc2c[nH]c3ccccc23)NC(=O)[C@H](Cc2ccc(O)cc2)NC(=O)[C@@H](NC(=O)[C@@H](Cc2ccccc2)NC(=O)CCOCCOCCOCCOCCON=Cc2ccc(CNC(=O)OC3CCCc4cnnc(-c5ccc(CC(=O)NCC[N+](C)(C)C[B-](F)(F)F)cc5)c4CC3)cc2)CSSC[C@@H](C(=O)N[C@H](CO)[C@@H](C)O)NC1=O (stereo partly drawn) [[^18F]14] | 4 | 2.0 | 2.8 | approximately 99% | ≥ 99 | 1.0 ± 0.2 | 0.5 ± 0.1
2 | C[C@@H](O)[C@@H]1NC(=O)[C@H](CCCCN)NC(=O)[C@@H](Cc2c[nH]c3ccccc23)NC(=O)[C@H](Cc2ccc(O)cc2)NC(=O)[C@@H](NC(=O)[C@@H](Cc2ccccc2)NC(=O)CCOCCOCCOCCOCCON=Cc2ccc(C(=O)NCCOCCOCCOCCNC(=O)OC3CCCc4cnnc(-c5ccc(CC(=O)NCC[N+](C)(C)C[B-](F)(F)F)cc5)c4CC3)cc2)CSSC[C@@H](C(=O)N[C@H](CO)[C@@H](C)O)NC1=O (stereo partly drawn) [[^18F]15] | – | – | – | – | – | 6.1 ± 0.6 | 0.7 ± 0.1
